Source: patent publication US4604239A, “Antibiotics” (Eli Lilly and Company, priority 1985, dated 1986)
In brackets after ≈: the same amount, converted by molar mass. Read-outs that look alike come from different tables or passages of the source.

Key:
Bacteroides fragilis = assay: agar-dilution MIC; type: cell-based
Source text: (§1) The agar-dilution procedure described by the International Collaborative study (ICS) group was used to determine the minimum inhibitory concentrations (MIC's).

[1] = test system: Staphylococcus epidermidis; assay: agar-dilution MIC; type: cell-based
Source text: as §1

Clostridium difficile = type: cell-based
[2] = test system: Peptostreptococcus intermedius; assay: agar-dilution MIC; type: cell-based
Enterobacter aerogenes = assay: agar-dilution MIC; type: cell-based; conditions: Enterobacter aerogenes C32; Table 17
Source text: The results after reading the which follows.

[3] = test system: Streptococcus sp. ATCC 10389; assay: agar-dilution MIC; type: cell-based; conditions: end point after 24 hours, Table 18
Source text: (§2) The in vitro activity of antibiotic A41030 factors A and B against a number of representative aerobic, gram-positive bacteria, including Streptococcus sp. Group D, has been determined using a standard agar-dilution assay.

[4] = test system: Streptococcus sp. Group B; assay: agar-dilution MIC; type: cell-based; conditions: Streptococcus sp. Group B 5; end point after 24 hours; Table 18
Source text: as §2

[5] = test system: Haemophilus parainfluenzae; assay: agar-dilution MIC; type: cell-based; conditions: end point after 24 hours, Table 18
S. pneumoniae = assay: experimental bacterial infection in mice; type: in vivo; conditions: two doses subcutaneously
Description: All of the A41030 factors tested have shown in vivo antimicrobial activity against experimental bacterial infections. When two doses of test compound were administered subcutaneously to mice in illustrative infections, the activity observed is measured as an ED50 value [effective dose in mg./kg. to protect fifty percent of the test animals: See Warren Wick, et al., J. Bacteriol. 81, 233-235 (1961)].

With `N[C@H]1C(=O)N[C@@H]2Cc3ccc(c(Cl)c3)Oc3cc4cc(c3O)Oc3ccc(cc3Cl)[C@@H](O)[C@@H]3NC(=O)C(NC(=O)[C@@H]4NC(=O)[C@@H](NC2=O)c2cc(O)cc(c2)Oc2cc1ccc2O)c1ccc(O)c(c1)-c1c(O)cc(O)cc1[C@@H](C(=O)O)NC3=O` [A41030 factor B] the MIC (Bacteroides fragilis; B. fragilis 2, 24-hour, Table 12) was 32 µg/mL (≈ 26.7 µM), the MIC (Bacteroides fragilis; B. fragilis 9, 24-hour, Table 12) was 32 µg/mL (≈ 26.7 µM) and the MIC (Bacteroides fragilis; B. fragilis 103, 24-hour, Table 12) was 32 µg/mL (≈ 26.7 µM). It also gave an MIC (Bacteroides fragilis; B. fragilis 104, 24-hour, Table 12) of 32 µg/mL (≈ 26.7 µM), an MIC (Bacteroides fragilis; B. fragilis 106, 24-hour, Table 12) of 32 µg/mL (≈ 26.7 µM) and an MIC (Bacteroides fragilis; B. fragilis 107, 24-hour, Table 12) of 32 µg/mL (≈ 26.7 µM). The MIC (Bacteroides fragilis; B. fragilis 108, 24-hour, Table 12) was 32 µg/mL (≈ 26.7 µM), the MIC (Bacteroides fragilis; B. fragilis 110, 24-hour, Table 12) was 64 µg/mL (≈ 53.4 µM) and the MIC (Bacteroides fragilis; B. fragilis 111, 24-hour, Table 12) was 32 µg/mL (≈ 26.7 µM). The MIC (Bacteroides fragilis; B. fragilis 112, 24-hour, Table 12) was 32 µg/mL (≈ 26.7 µM), the MIC (Bacteroides fragilis; B. fragilis 113, 24-hour, Table 12) was 32 µg/mL (≈ 26.7 µM) and the MIC (Bacteroides fragilis; B. fragilis 1451, 24-hour, Table 12) was 64 µg/mL (≈ 53.4 µM). It also gave an MIC (Bacteroides fragilis; B. fragilis 1470, 24-hour, Table 12) of 64 µg/mL (≈ 53.4 µM), an MIC (Bacteroides fragilis; B. fragilis 1877, 24-hour, Table 12) of 32 µg/mL (≈ 26.7 µM) and an MIC (Bacteroides fragilis; B. fragilis 9032, 24-hour, Table 12) of 32 µg/mL (≈ 26.7 µM). For the same compound, the MIC (Bacteroides fragilis; Bacteroides fragilis 111, Table 14) was 64 µg/mL (≈ 53.4 µM), the MIC (Bacteroides fragilis; Bacteroides fragilis 1877, Table 14) was 32 µg/mL (≈ 26.7 µM) and the MIC (Bacteroides fragilis; Bacteroides fragilis 1936B, Table 14) was 32 µg/mL (≈ 26.7 µM). It also gave an MIC ([1]; Staphylococcus epidermidis 219, end point after 24 hours, Table 18) of 0.03 µg/mL (≈ 0.025 µM), an MIC ([1]; Staphylococcus epidermidis 269, end point after 24 hours, Table 18) of 0.03 µg/mL (≈ 0.025 µM) and an MIC ([1]; Staphylococcus epidermidis 270, end point after 24 hours, Table 18) of 0.06 µg/mL (≈ 0.05 µM). The MIC ([1]; Staphylococcus epidermidis 285, end point after 24 hours, Table 18) was 0.03 µg/mL (≈ 0.025 µM), the MIC ([1]; Staphylococcus epidermidis EPI2, Table 17) was 0.5 µg/mL (≈ 0.417 µM) and the MIC (Clostridium difficile; Clostridium difficile 78, Table 16) was 0.5 µg/mL (≈ 0.417 µM). For the same compound, the MIC (Clostridium difficile; Clostridium difficile 107B, Table 16) was 0.5 µg/mL (≈ 0.417 µM), the MIC (Clostridium difficile; Clostridium difficile 111F, Table 16) was 1.0 µg/mL (≈ 0.834 µM) and the MIC (Clostridium difficile; Clostridium difficile 1153, Table 16) was 1.0 µg/mL (≈ 0.834 µM). The MIC (Clostridium difficile; Clostridium difficile 2634, Table 16) was 1.0 µg/mL (≈ 0.834 µM), the MIC (Clostridium difficile; Clostridium difficile 2994, Table 14) was 32 µg/mL (≈ 26.7 µM) and the MIC (Clostridium difficile; Clostridium difficile 3424-5B, Table 16) was 1.0 µg/mL (≈ 0.834 µM). It also gave an MIC (Clostridium difficile; Clostridium difficile 3816, Table 16) of 1.0 µg/mL (≈ 0.834 µM), an MIC (Clostridium difficile; Clostridium difficile 3950D, Table 16) of 1.0 µg/mL (≈ 0.834 µM) and an MIC (Clostridium difficile; Clostridium difficile 6890, Table 16) of 1.0 µg/mL (≈ 0.834 µM). It also gave an MIC (Clostridium difficile; Clostridium difficile 8484, Table 16) of 1.0 µg/mL (≈ 0.834 µM), an MIC (Clostridium difficile; Clostridium difficile A-194, Table 16) of 1.0 µg/mL (≈ 0.834 µM) and an MIC (Clostridium difficile; Clostridium difficile A-195, Table 16) of 1.0 µg/mL (≈ 0.834 µM). It also gave an MIC (Clostridium difficile; Clostridium difficile A-196, Table 16) of 1.0 µg/mL (≈ 0.834 µM), an MIC (Clostridium difficile; Clostridium difficile A-279, Table 16) of 1.0 µg/mL (≈ 0.834 µM) and an MIC (Clostridium difficile; Clostridium difficile A-280, Table 16) of 0.5 µg/mL (≈ 0.417 µM). For the same compound, the MIC (Clostridium difficile; Clostridium difficile A-281, Table 16) was 1.0 µg/mL (≈ 0.834 µM), the MIC (Clostridium difficile; Clostridium difficile WAL-2112, Table 16) was 1.0 µg/mL (≈ 0.834 µM) and the MIC (Clostridium difficile; Clostridium difficile WAL-3657, Table 16) was 1.0 µg/mL (≈ 0.834 µM). The MIC (Clostridium difficile; Clostridium difficile WAL-4268, Table 16) was 0.5 µg/mL (≈ 0.417 µM), the MIC ([2]; Peptostreptococcus intermedius 1264, Table 14) was 0.5 µg/mL (≈ 0.417 µM) and the MIC ([2]; Ps. intermedius 1264, Table 15) was ≤ 0.03 µg/mL. For the same compound, the MIC ([2]; Ps. intermedius 1524, Table 15) was 0.25 µg/mL (≈ 0.209 µM), the MIC ([2]; Ps. intermedius 1624, Table 15) was 0.5 µg/mL (≈ 0.417 µM) and the MIC (Enterobacter aerogenes) was 64 µg/mL (≈ 53.4 µM). The MIC [3] was 0.25 µg/mL (≈ 0.209 µM), the MIC [4] was 1 µg/mL (≈ 0.834 µM) and the MIC ([5]; Haemophilus parainfluenzae 7901) was 16 µg/mL (≈ 13.3 µM). It also gave an MIC ([5]; Haemophilus parainfluenzae 9796) of 16 µg/mL (≈ 13.3 µM) and an ED50 (S. pneumoniae) of 1.4 mg/kg.
